According to the NIST ThermoML archive (doi:10.1021/je600519p):

Assay: xn = mol fraction of the nth substance listed
Conditions: 101 kPa, Liquid

CC(=O)c1ccccc1 [acetophenone] + CCCCCCO
Conditions | mass density [kg/m3] | speed of sound [m/s] | viscosity [mPa·s]
293.15 K, x1 = 0.0498 | 828.69 | 1316 | 4.831
293.15 K, x1 = 0.1009 | 838.84 | 1323 | 4.397
293.15 K, x1 = 0.1517 | 848.99 | 1331 | 3.997
293.15 K, x1 = 0.2106 | 860.83 | 1341 | 3.605
293.15 K, x1 = 0.2474 | 868.27 | 1348 | 3.31
293.15 K, x1 = 0.3028 | 879.53 | 1358 | 2.986
293.15 K, x1 = 0.3426 | 887.67 | 1365 | 2.744
293.15 K, x1 = 0.3978 | 899.01 | 1375 | 2.491
293.15 K, x1 = 0.4512 | 910.05 | 1385 | 2.266
293.15 K, x1 = 0.4985 | 919.88 | 1394 | 2.085
293.15 K, x1 = 0.5526 | 931.2 | 1404 | 1.93
293.15 K, x1 = 0.6071 | 942.67 | 1415 | 1.798
293.15 K, x1 = 0.6491 | 951.55 | 1424 | 1.744
293.15 K, x1 = 0.7101 | 964.53 | 1437 | 1.65
293.15 K, x1 = 0.7485 | 972.75 | 1445 | 1.664
293.15 K, x1 = 0.8019 | 984.23 | 1457 | 1.673
293.15 K, x1 = 0.8521 | 995.09 | 1467 | 1.691
293.15 K, x1 = 0.9045 | 1006.5 | 1476 | 1.71
293.15 K, x1 = 0.9554 | 1017.63 | 1485 | 1.727
303.15 K, x1 = 0.0498 | 821.41 | 1285 | 3.559
303.15 K, x1 = 0.1009 | 831.48 | 1293 | 3.262
303.15 K, x1 = 0.1517 | 841.54 | 1302 | 2.989
303.15 K, x1 = 0.2106 | 853.28 | 1313 | 2.725
303.15 K, x1 = 0.2474 | 860.66 | 1320 | 2.511
303.15 K, x1 = 0.3028 | 871.83 | 1332 | 2.306
303.15 K, x1 = 0.3426 | 879.89 | 1340 | 2.148
303.15 K, x1 = 0.3978 | 891.14 | 1351 | 1.961
303.15 K, x1 = 0.4512 | 902.09 | 1362 | 1.805
303.15 K, x1 = 0.4985 | 911.85 | 1371 | 1.692
303.15 K, x1 = 0.5526 | 923.08 | 1382 | 1.583
303.15 K, x1 = 0.6071 | 934.47 | 1393 | 1.488
303.15 K, x1 = 0.6491 | 943.29 | 1402 | 1.442
303.15 K, x1 = 0.7101 | 956.19 | 1414 | 1.431
303.15 K, x1 = 0.7485 | 964.35 | 1421 | 1.426
303.15 K, x1 = 0.8019 | 975.77 | 1430 | 1.455
303.15 K, x1 = 0.8521 | 986.56 | 1439 | 1.465
303.15 K, x1 = 0.9045 | 997.88 | 1445 | 1.48
303.15 K, x1 = 0.9554 | 1008.95 | 1451 | 1.496
313.15 K, x1 = 0.0498 | 813.97 | 1277 | 2.684
313.15 K, x1 = 0.1009 | 823.85 | 1285 | 2.481
313.15 K, x1 = 0.1517 | 833.75 | 1293 | 2.292
313.15 K, x1 = 0.2106 | 845.32 | 1303 | 2.104
313.15 K, x1 = 0.2474 | 852.58 | 1310 | 1.977
313.15 K, x1 = 0.3028 | 863.61 | 1320 | 1.812
313.15 K, x1 = 0.3426 | 871.57 | 1328 | 1.697
313.15 K, x1 = 0.3978 | 882.7 | 1339 | 1.58
313.15 K, x1 = 0.4512 | 893.55 | 1350 | 1.483
313.15 K, x1 = 0.4985 | 903.23 | 1360 | 1.396
313.15 K, x1 = 0.5526 | 914.38 | 1370 | 1.322
313.15 K, x1 = 0.6071 | 925.7 | 1380 | 1.263
313.15 K, x1 = 0.6491 | 934.49 | 1387 | 1.255
313.15 K, x1 = 0.7101 | 947.35 | 1398 | 1.243
313.15 K, x1 = 0.7485 | 955.5 | 1404 | 1.252
313.15 K, x1 = 0.8019 | 966.9 | 1408 | 1.264
313.15 K, x1 = 0.8521 | 977.72 | 1409 | 1.266
313.15 K, x1 = 0.9045 | 989.09 | 1411 | 1.271
313.15 K, x1 = 0.9554 | 1000.23 | 1416 | 1.276
323.15 K, x1 = 0.0498 | 806.47 | 1230 | 2.119
323.15 K, x1 = 0.1009 | 816.28 | 1238 | 1.97
323.15 K, x1 = 0.1517 | 826.11 | 1247 | 1.831
323.15 K, x1 = 0.2106 | 837.59 | 1259 | 1.69
323.15 K, x1 = 0.2474 | 844.8 | 1266 | 1.585
323.15 K, x1 = 0.3028 | 855.74 | 1278 | 1.48
323.15 K, x1 = 0.3426 | 863.65 | 1287 | 1.395
323.15 K, x1 = 0.3978 | 874.71 | 1298 | 1.307
323.15 K, x1 = 0.4512 | 885.48 | 1308 | 1.236
323.15 K, x1 = 0.4985 | 895.1 | 1316 | 1.169
323.15 K, x1 = 0.5526 | 906.19 | 1326 | 1.118
323.15 K, x1 = 0.6071 | 917.44 | 1335 | 1.075
323.15 K, x1 = 0.6491 | 926.17 | 1342 | 1.069
323.15 K, x1 = 0.7101 | 938.95 | 1351 | 1.073
323.15 K, x1 = 0.7485 | 947.06 | 1356 | 1.075
323.15 K, x1 = 0.8019 | 958.4 | 1361 | 1.073
323.15 K, x1 = 0.8521 | 969.16 | 1365 | 1.067
323.15 K, x1 = 0.9045 | 980.48 | 1370 | 1.076
323.15 K, x1 = 0.9554 | 991.56 | 1372 | 1.086
